Assay results from patent publication US20210179620A1, “MESOIONIC I[…] AND DERIVATIVES FOR COMBATING ANIMAL PESTS” (BASF SE, priority 2017, published 2021).

Columns and labels:
[1] = tested on: vetch aphid (Megoura viciae); test: Vetch aphid contact or systemic test, broad bean leaf disks in 24-well microtiter plates; format: in vivo; details: foliar, 120 h, sprayed broad bean leaf disks, adult aphids, 5 days, read-out: mortality in comparison with untreated controls
Description: Vetch Aphid (Megoura viciae):
For evaluating control of vetch aphid (Megoura viciae) through contact or systemic means the test unit consisted of 24-well-microtiter plates containing broad bean leaf disks.
The compounds were formulated using a solution containing 75% v/v water and 25% v/v DMSO. Different concentrations of formulated compounds were sprayed onto the leaf disks at 2.5 μl, using a custom built micro atomizer, at two replications. After application, the leaf disks were air-dried and 5-8 adult aphids placed on the leaf disks inside the microtiter plate wells. The aphids were then allowed to suck on the treated leaf disks and incubated at about 23+1° C. and about 50+5% relative humidity for 5 days. Aphid mortality and fecundity was then visually assessed.

[2] = tested on: green peach aphid (Myzus persicae); test: Green peach aphid systemic test, artificial diet in 96-well microtiter plates; format: in vivo; details: 72 h, adult aphids on treated artificial diet, 3 days, read-out: mortality in comparison with untreated controls
Excerpt: Green Peach Aphid (Myzus persicae):
For evaluating control of green peach aphid (Myzus persicae) through systemic means the test unit consisted of 96-well-microtiter plates containing liquid artificial diet under an artificial membrane.
The compounds were formulated using a solution containing 75% v/v water and 25% v/v DMSO. Different concentrations of formulated compounds were pipetted into the 30 aphid diet, using a custom built pipetter, at two replications.
After application, 5-8 adult aphids were placed on the artificial membrane inside the microtiter plate wells. The aphids were then allowed to suck on the treated aphid diet and incubated at about 23˜1° C. and about 50˜5% relative humidity for 3 days. Aphid mortality and fecundity was then visually assessed.

Q: `Cn1c(C(=O)CCl)c([O-])[n+]2c1SCC2c1cnc(Cl)s1` (centres unmarked) [C-1, 6-(2-chloroacetyl)-3-(2-chlorothiazol-5-yl)-7-methyl-2,3-dihydroimidazo[2,1-b]thiazol-4-ium-5-olate] was tested. Which mortality at 2500 ppm [1] did it give?
A: Its mortality at 2500 ppm is over 75%.

Q: What about the mortality at 2500 ppm [2] of the same compound?
A: Its mortality at 2500 ppm is over 75%.
